Measurements as given in article PMC2629123, “Trypanosoma cruzi CYP51 Inhibitor Derived from a Mycobacterium tuberculosis Screen Hit” (PLoS Neglected Tropical Diseases, 2009).
Where two headings read alike, the source gives them in different places.

What was measured:
[1] = test system: T. brucei; test: T. brucei assay, viability by ATP-bioluminescence (CellTiter-Glo); assay type: cell-based, Trypanosoma brucei; conditions: highest tested concentration 10 µM, 48 h
Method: Trypanosomes were grown in complete HMI-9 medium containing 10% FBS, 10% Serum Plus medium (Sigma Inc. St. Louis Mo. USA) and 1× penicillin/streptomycin. Trypanosomes were diluted to 1.0×10^5/ml in complete HMI-9 medium. Diluted trypanosomes were aliquoted in Greiner sterile 96-well flat white opaque culture plates using a WellMate cell dispenser (Matrix Tech., Hudson, NH, USA). Compounds 8 and 10 were serially diluted in Me2SO. Trypanosomes were incubated with the compounds for 48 h at 37°C with 5% CO2 before monitoring viability. Trypanosomes were then lysed in the wells by adding 50 µl of CellTiter-GloTM (Promega Inc., Madison, WI, USA). Lysed trypanosomes were placed on an orbital shaker at room temperature for 2 min. The resulting ATP-bioluminescence of the trypanosomes in the 96-well plates was measured at room temperature using an Analyst HT plate reader (Molecular Devices, Sunnyvale, CA, USA).

[2] = target: T1, CYP51Tb (Trypanosoma brucei brucei, UniProt Q385E8, L2A); test: biochemical; assay type: binding; conditions: spectral titration, room temperature, pH 7.5
T1 construct: His8 (C); made in house; host or cells: E. coli HMS174(DE3) co-transformed with pGro7 (GroES/GroEL)
T1 sequence (Q385E8 whole entry L2A): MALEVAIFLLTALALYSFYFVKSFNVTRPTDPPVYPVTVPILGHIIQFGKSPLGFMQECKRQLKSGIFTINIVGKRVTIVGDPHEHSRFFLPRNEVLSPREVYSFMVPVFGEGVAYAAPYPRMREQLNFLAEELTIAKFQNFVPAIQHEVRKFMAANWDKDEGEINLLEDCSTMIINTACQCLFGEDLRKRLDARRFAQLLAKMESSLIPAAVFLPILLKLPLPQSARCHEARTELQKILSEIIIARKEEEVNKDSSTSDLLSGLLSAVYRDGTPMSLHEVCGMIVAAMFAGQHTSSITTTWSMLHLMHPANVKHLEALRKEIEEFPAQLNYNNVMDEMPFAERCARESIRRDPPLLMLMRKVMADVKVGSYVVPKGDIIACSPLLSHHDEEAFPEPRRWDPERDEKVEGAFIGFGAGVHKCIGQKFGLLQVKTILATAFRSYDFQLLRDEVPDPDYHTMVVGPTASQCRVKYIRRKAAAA

[3] = test system: T. cruzi intracellular amastigotes; test: IC50: T. cruzi intracellular amastigotes in J774 macrophages, parasites/cell; assay type: cell-based, Trypanosoma cruzi; conditions: 52 h; for mean number of parasites/cell: untreated 3.57±0.5 P/cell
Method: To determine IC50, mouse J774 macrophages were irradiated (1000 rads) to deter growth and plated onto 12-well tissue culture plates. Cells were infected with 10^5 tissue culture trypomastigotes of the Y strain of T. cruzi for 2 h at 37°C, as described above. […] All treatments were performed in triplicate to ensure statistical validity. Cultures were then fixed in 4% paraformaldehyde in PBS for 2 h at room temperature and stained with DAPI (10 nM) in PBS. One hundred cells and their intracellular parasites were quantified as previously described to estimate the mean number of parasites/cell. Mean P/cell data were plotted against compound concentration to estimate the IC50.

[4] = target: T2, CYP51Tc (Trypanosoma cruzi, UniProt Q7Z1V1); test: biochemical; assay type: binding
T2 construct: His6 (C); made in house; host or cells: Escherichia coli HMS174(DE3)
T2 sequence (Q7Z1V1 21-481, looked up, natural form): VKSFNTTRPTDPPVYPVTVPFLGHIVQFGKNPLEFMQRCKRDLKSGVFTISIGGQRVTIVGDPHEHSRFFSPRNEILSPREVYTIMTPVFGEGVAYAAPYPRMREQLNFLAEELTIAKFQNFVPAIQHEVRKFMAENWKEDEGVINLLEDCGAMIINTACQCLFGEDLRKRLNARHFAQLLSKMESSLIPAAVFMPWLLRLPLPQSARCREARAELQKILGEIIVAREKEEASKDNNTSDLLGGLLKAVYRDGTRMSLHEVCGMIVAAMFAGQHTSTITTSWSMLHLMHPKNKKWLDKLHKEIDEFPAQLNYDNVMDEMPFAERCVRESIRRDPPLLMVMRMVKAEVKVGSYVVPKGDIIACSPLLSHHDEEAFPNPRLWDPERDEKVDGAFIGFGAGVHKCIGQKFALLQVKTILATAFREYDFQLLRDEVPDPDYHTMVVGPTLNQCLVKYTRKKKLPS

[5] = test system: T. cruzi Y strain trypomastigotes; test: T. cruzi assay: infection of J774 mouse macrophages, long-term treatment and cure; assay type: cell-based, Trypanosoma cruzi; conditions: 10 µM, infected J774 macrophages, treatment up to 27 days then 13–15 days without inhibitor
Method: Irradiated (1000 rads) J774 mouse macrophages were plated in 12-well tissue culture plates 24 h prior to infection with 10^5 T. cruzi Y strain trypomastigotes for 2 h at 37°C. […] Untreated controls, controls treated with the inhibitor K11777 (10 µM),[31], and uninfected macrophage controls were also included. All cultures were in triplicate and medium was replaced every 48 h. Treatment with CYP51 inhibitors continued for up to 27 days. Subsequently, treated cultures were maintained without inhibitor for an additional 13–15 days to confirm inhibitor effectiveness and cure of infected cells. Cultures were monitored daily by contrast phase microscopy to determine presence of T. cruzi infected cells and free infectious trypomastigotes (Table 2).

[6] = spectral titration, room temperature, pH 7.5, read-out: KD, μM CYP51Tc

Question: For Cc1ccc(S(=O)(=O)NCCCOC(=O)Nc2ccncc2)cc1 [Compound 8, 3-{[(4-methylphenyl)sulfonyl]amino}propylpyridin-4-ylcarbamate], which “inhibitory effects against cultured T. brucei” value [1] is on record?
Answer: neither compound 8 nor 10 had any inhibitory effects

Question: What about the “KD, μM CYP51Tb” value [2] of the same compound?
Answer: no binding

Question: And the “mean number of parasites/cell” value ([3]; 10 µM)?
Answer: 1.22±0.1 P/cell

Question: And the Kd ([4]; KD (affinity toward CYP51Tc), spectral assays)?
Answer: 0.16 µM

Question: And the Kd ([4]; KD, μM CYP51Tc, spectral titration, room temperature, pH 7.5)?
Answer: 0.16 ± 0.03 µM

Question: What about the Host cell survival [5] of the same compound?
Answer: 5 days

Question: What about the T. cruzi development [5] of the same compound?
Answer: 5 days

Question: Cn1c(=O)c2c(ncn2CC(=O)Nc2ccncc2)n(C)c1=O [Compound 7] was tested. Which Kd [2] did it give?
Answer: > 100 µM

Question: What about the Kd [4, 6] of the same compound?
Answer: 20.7 ± 0.8 µM

Question: For CCC(C(=O)Nc1ccncc1)c1ccccc1 (stereo not drawn) [EBPA, α-ethyl-N-4-pyridinyl-benzeneacetamide, reference compound], which Kd [4, 6] is on record?
Answer: 0.48 ± 0.08 µM

Question: For CSCC[C@H](NC(=O)[C@H]1CC[C@@H](C)CC1)C(=O)Nc1ccncc1 [Compound 9, cis-4-methyl-N-[(1S)-3-(methylsulfanyl)-1-(pyridin-4-ylcarbamoyl)propyl]cyclohexanecarboxamide], which Kd [2] is on record?
Answer: 6.5 ± 0.6 µM

Question: Which results are given for CC1CCC(C(=O)NC(Cc2c[nH]c3ccccc23)C(=O)Nc2ccncc2)CC1 (centres unmarked) [Compound 10]?
Answer: inhibitory effects against cultured T. brucei [1]: neither compound 8 nor 10 had any inhibitory effects; inhibitory effects against cultured T. brucei ([1]; listed as compound 10): inactive; KD, μM CYP51Tb [2]: no binding; mean number of parasites/cell ([3]; 10 µM): 0.25±0.01 P/cell; inhibition at 10 µM ([3]; Trypanosoma cruzi, 10 µM, read-out: growth inhibition): 100%; IC50 ([3]; Trypanosoma cruzi, Y strain, read-out: IC50 for T. cruzi intracellular growth inhibition): ~0.001 µM; Host cell survival [5]: 40 days; T. cruzi development [5]: No; T. cruzi development ([5]; listed as compound 10): No parasites survived
